Assays:
[1] = target: BSA (bovine serum albumin) (Bos taurus, UniProt P02769); test: Protein precipitation in vitro, BSA gelling experiments; conditions: composition in water
Excerpt: Therefore, the ability of a composition comprising 1-hexylpyridinium chloride in water for protein precipitation was investigated in vitro using BSA (bovine serum albumin) gelling experiments. An aqueous solution of aluminum chloride hexahydrate was used as a positive control.

[2] = tested on: Corynebacterium xerosis DSM 20743, ATCC 373; test: Minimum inhibitory concentration, dilution series in suspension; type: cell-based; conditions: 1-hexylpyridinium chloride in water
Excerpt: (§1) Corynebacteria and germs of the genus Staphylococcus epidermidis are mainly found in the underarm area. Therefore, the bacteriostatic effect of a composition comprising 1-hexylpyridinium chloride in water was investigated in vitro on the relevant test microbes. The test microbes used were Staphylococcus epidermidis with the identifier DSM 20044, ATCC 14990, Corynebacterium xerosis with the identification DSM 20743, ATCC 373 and Kocuria rhizophila of the type Micrococcus with the identifier DSM 11926. Using a series of dilutions of the substance to be tested, the minimum inhibitory concentration was determined at which growth of the bacteria in suspension could no longer be detected. […] Thus, an antimicrobial effect on odor-forming microorganisms and thus a deodorizing effect of the active ingredient 1-hexylpyridinium chloride is also shown in vitro.

[3] = tested on: Staphylococcus epidermidis DSM 20044, ATCC 14990; test: as above; type: cell-based; conditions: 1-hexylpyridinium chloride in water
Excerpt: as §1

[4] = In vitro evidence on toxicity, skin corrosion, mutagenicity, carcinogenicity
[5] = Skin compatibility, epicutaneous test (occlusive patch); type: in vivo, human; conditions: 5% and 7.5% of the active ingredient
Excerpt: The aim of examining skin compatibility, the so-called epicutaneous test, is to rule out primary skin irritation caused by a test product and/or existing sensitization to the test product. The test substances are applied occlusively to the skin at suitable concentrations. The epicutaneous contact with the test product is limited in terms of location and time and is intensified by occlusion conditions, so that the absorption of the test substances is favored. The skin was examined after 24, 48 and 72 hours. The occlusion conditions are used to allow a potential allergen to more easily penetrate through the stratum corneum to reach the effector cells that could elicit a local immune system response. A positive response occurs when a threshold level of irritation/sensitization is exceeded. A positive reaction to a correctly applied epicutaneous test is considered evidence of primary irritation by the test substance, but not necessarily evidence of sensitization. For the test, 20 mg or 20 μL of the test product is applied undiluted to a ready-made plaster, which is applied and fixed to the clinically healthy skin of the upper back. The test plaster is removed after an exposure time of 24 hours and for the first time assessed dermatologically and allergologically. […] The test reaction was evaluated for the first time 30 minutes after removal of the test plaster under standardized lighting. […]

[6] = Antiperspirant effect and side effects over the active ingredient concentration range; type: in vivo

BSA (bovine serum albumin), sequence (P02769 25-607): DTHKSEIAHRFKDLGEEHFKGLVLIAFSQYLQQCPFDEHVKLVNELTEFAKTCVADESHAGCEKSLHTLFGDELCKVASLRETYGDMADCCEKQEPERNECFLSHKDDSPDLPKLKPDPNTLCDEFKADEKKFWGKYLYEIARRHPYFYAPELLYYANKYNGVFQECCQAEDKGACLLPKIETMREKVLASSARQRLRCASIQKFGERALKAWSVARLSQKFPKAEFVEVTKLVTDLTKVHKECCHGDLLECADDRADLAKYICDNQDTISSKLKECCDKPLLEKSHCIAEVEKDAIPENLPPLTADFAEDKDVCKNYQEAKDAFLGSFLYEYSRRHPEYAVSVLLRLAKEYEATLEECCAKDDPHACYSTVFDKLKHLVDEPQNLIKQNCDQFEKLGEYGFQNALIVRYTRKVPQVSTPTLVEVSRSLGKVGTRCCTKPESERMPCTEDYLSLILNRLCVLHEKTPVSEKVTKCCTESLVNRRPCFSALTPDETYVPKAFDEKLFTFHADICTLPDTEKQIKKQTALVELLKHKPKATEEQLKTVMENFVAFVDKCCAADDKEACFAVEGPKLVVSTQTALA

gelation of BSA [1]: leads to gelation of BSA
in vivo skin compatibility [5]: Good in vivo skin compatibility
Structure (SMILES): CCCCCC[n+]1ccccc1.[Cl-] [1-hexylpyridinium chloride]
minimum inhibitory concentration (inhibition of bacterial growth), final preparation concentration [2]: 0.2%
minimum inhibitory concentration (bacteriostatic effect) [3]: 0.4%
mutagenicity or carcinogenicity [4]: no mutagenicity or carcinogenicity
skin corrosion [4]: no skin corrosion
toxicity [4]: low toxicity
serious side effects ([6]; active ingredient concentration 0.5% by weight up to 25% by weight): serious side effects were ruled out
antiperspirant effect ([6]; active ingredient concentration 0.5% by weight up to 30% by weight): good antiperspirant effect
